Reference: patent publication US10098900B2, “Pharmaceutical compositions and their use for treatment of cancer and autoimmune diseases” (ZHEJIANG DTRM BIOPHARMA CO. LTD., priority 2015, dated 2018)
Marks after values point to notes of the source that are not given here.

Key:
DoHH-2 cell line = assay: Inhibition assay of tumor cell activity (cell viability), DoHH-2; type: cell-based; conditions: Homo sapiens, individual compound, read-out: Inh % on DoHH-2 cell line (AVG)
Description: (§1) Inhibition Assay of Tumor Cell Activity:
(§2) Tumor cells (TMD-8, DoHH2 and WSU-DLCL2) were transferred and attached to 96-well plates. After one night, blank buffer and selected concentrations (0.01 nM-100 μM) of the test compound solution were added. After 48 hours incubation, CellTiter-Go was added to lyse the cells. Recording luminescent signal and calculate the percent inhibition of cell viability

TMD-8 lymphoma xenograft = assay: Inhibition of tumor growth in vivo, TMD-8 lymphoma xenograft SCID mouse model; conditions: TMD-8, Oral, BID
Description: (§3) Inhibition Study of Tumor Growth In Vivo:
(§4) SCID mice or nude mice (weighing about 18 g at the beginning of the experiment) were randomly divided into groups by the software in order to achieve close average weights between groups and control the bias within the allowable range. The mice were injected BTK cell lines (TMD-8, WSU-DLCL2 and DoHH-2) for tumor formation. Inhibitors were administered orally once or twice a day, a total of 14 days, 21 days or 28 days. Body weights and tumor volume were recorded.
(§5) Xenograft Tumor Models Inoculated with TMD-8, or DoHH2, or WSU-DLCL2 Tumor Cell Lines:
(§6) TMD-8 is a sensitive human diffuse large B-cell lymphoma cell line, and DoHH2 is a more difficult to treat human follicular lymphoma cell line, while WSU-DLCL2 is a multi-drug resistant (MDR) human non-Hodgkin's lymphoma cell line. Drug combination therapies provide better efficacies in all three tumor models than single targeted agent alone.
(§7) The TMD-8, DoHH2, WSU-DLCL2 tumor cells were maintained in vitro as a suspension culture in RPMI-1640 medium supplemented with 10% heat inactivated fetal calf serum at 37° C. in an atmosphere of 5% CO2 in air. The tumor cells were routinely subcultured twice weekly. The cells growing in an exponential growth phase were harvested and counted for tumor inoculation. Each mouse was inoculated subcutaneously at the right flank with the tumor cells (10×10^6) in 0.2 ml of PBS with Matrigel (1:1) for tumor development. The treatments were started after the average tumor size reached approximately 100-200 mm^3. Each group consisted of 6-10 tumor-bearing mice. The testing article (vehicle, compound or combination) was orally administrated to the mice according to the predetermined doses for 14-days or 21-days. Animal body weight and tumor volume were measured every 2- or 3-days throughout the treatment.

[1] = 28-day toxicity/toxicokinetic (TK) study in rats
Excerpt: Toxicity and toxicokinetic (TK) studies of the compounds can be performed by well known methods.

[2] = system: DoHH-2 lymphoma xenograft; assay: Inhibition of tumor growth in vivo, DoHH-2 lymphoma xenograft SCID mouse model; conditions: BID, 21 days
Description: as §3, §4, §5, §6, §7

WSU-DLCL2 xenograft = assay: Inhibition of tumor growth in vivo, resistant WSU-DLCL2 SCID mouse model; conditions: for Antitumor effect (%): WSU-DLCL2, Oral, BID
Description: as §3
as §4, with “Inhibitors were administered orally once or twice a day, a total of 14 days, 21 days or 28 days.” left out
as §5
TMD-8 is a sensitive human diffuse large B-cell lymphoma cell line, and DoHH2 is a more difficult to treat human follicular lymphoma cell line, while WSU-DLCL2 is a multi-drug resistant (MDR) human non-Hodgkin's lymphoma cell line.
as §7, with “The testing article (vehicle, compound or combination) was orally administrated to the mice according to the predetermined doses for 14-days or 21-days.” left out

[3] = system: resistant WSU-DLCL2 cell line; assay: Inhibition assay of tumor cell activity (cell viability), WSU-DLCL2; type: cell-based; conditions: Homo sapiens, WSUDLCL2, individual compound, read-out: Inh % on resistant WSU-DLCL2 cell line (AVG)
Description: as §1, §2

[4] = system: adjuvant-induced arthritis; assay: Adjuvant-induced arthritis (AA/AIA) model in female Lewis rats (paw volume, clinical score, histopathology); type: in vivo, rat; parameters: Pathological score (Mean ± SEM), Inflammatory cell infiltration / Pathological score (Mean ± SEM), Pannus growth / Pathological score (Mean ± SEM), Cartilage injury / Pathological score (Mean ± SEM), Bone resorption / Pathological score (Mean ± SEM), Total: scale not given here; conditions: for Paw volume (mL), Mean: 5 mg/kg BID
Excerpt: Adjuvant-Induced Arthritis AA Model: […] All rats except the normal group were immunized with complete Freund's adjuvant (CFA) subcutaneously at the left hind paw to induce arthritis at day 0. […] The treatments were given orally for 3 consecutive weeks. The body weight, paw volume and clinical score were monitored every other day after day 13 throughout the course of the study. At the terminal point, right hind paws were collected for histopathology analysis with H.E. staining.

[5] = 28-day toxicity/toxicokinetic (TK) study in dogs; type: in vivo, dog
TMD-8 cell line = assay: Inhibition assay of tumor cell activity (cell viability), TMD-8; type: cell-based, human; conditions: individual compound; for Inh % on TMD-8 cell line (AVG): 48 h
Description: as §1, §2

C=CC(=O)N1CC[C@@H](n2nc(-c3ccc(Oc4c(F)c(F)cc(F)c4F)cc3F)c3c(N)ncnc32)C1 [Compound 3, 1-((R)-3-(4-amino-3-(2-fluoro-4-(2,3,5,6-tetrafluorophenoxy)phenyl)-1H-pyrazolo[3,4-d]pyrimidin-1-yl)pyrrolidin-1-yl)prop-2-en-1-one]
inhibition at 0.01 µM (DoHH-2 cell line; 0.01 uM): 15.6% | inhibition at 0.1 µM (DoHH-2 cell line; 0.1 uM): 34.8% | inhibition at 1 µM (DoHH-2 cell line; 1 uM): 49.9% | Antitumor effect (%) (TMD-8 lymphoma xenograft; FIG. 2, 14 days, 10 mg/kg): 63% | Antitumor effect (%) (TMD-8 lymphoma xenograft; FIG. 2, 14 days, 30 mg/kg): 89% | Antitumor effect (%) (TMD-8 lymphoma xenograft; FIG. 3, 21 days, 5 mg/kg): 90% | Antitumor effect (%) (TMD-8 lymphoma xenograft; FIG. 3, 21 days, 10 mg/kg): 96% | Antitumor effect (%) (TMD-8 lymphoma xenograft; FIG. 4, 21 days, 10 mg/kg): 77% | Antitumor effect (%) (TMD-8 lymphoma xenograft; FIG. 12, 14 days, 5 mg/kg): 75% | difference in drug exposure between Day 1 and Day 28 ([1]; 28-day rat and dog studies): no significant difference | difference in drug exposure between male and female ([1]; 28-day rat and dog studies): no significant difference | AUC compared with ibrutinib ([1]; rats): significantly higher | Antitumor effect (%) ([2]; FIG. 6, Oral, 5 mg/kg): 28.8% | Antitumor effect (%) ([2]; FIG. 6, Oral, 10 mg/kg): 20.1% | Antitumor effect (%) ([2]; FIG. 6, Oral, 30 mg/kg): 35.6% | Antitumor effect (%) ([2]; FIG. 7, Oral, 5 mg/kg): 15.9% | Antitumor effect (%) (WSU-DLCL2 xenograft; FIG. 8, 28 days, 10 mg/kg): 22% | Antitumor effect (%) (WSU-DLCL2 xenograft; FIG. 8, 28 days, 30 mg/kg): 30% | Antitumor effect (%) (WSU-DLCL2 xenograft; FIG. 8, 28 days, 45 mg/kg): 32% | Antitumor effect (%) (WSU-DLCL2 xenograft; FIG. 9, 18 days, 5 mg/kg): 4% | Antitumor effect (%) (WSU-DLCL2 xenograft; FIG. 9, 18 days, 10 mg/kg): 7% | Antitumor effect (%) (WSU-DLCL2 xenograft; FIG. 9, 18 days, 30 mg/kg): 23% | efficacy / tumor growth (WSU-DLCL2 xenograft; WSU-DLCL2 mice model, FIGS. 8 and 9, triple combination at total 21 mg/kg/day): in line with the efficacy of Ibrutinib | inhibition at 0.01 µM ([3]; 0.01 uM): -10.1% | inhibition at 0.1 µM ([3]; 0.1 uM): -1.36% | inhibition at 1 µM ([3]; 1 uM): 41% | Paw volume (mL), Mean ([4]; Day 0): 1.04 mL | Paw volume (mL), Mean ([4]; Day 17): 1.87 ns mL | Paw volume (mL), Mean ([4]; Day 26): 2.29** mL | Paw volume (mL), Mean ([4]; Day 28): 2.12*** mL | Paw volume (mL), Mean ([4]; Day 31): 2.12*** mL | Paw volume (mL), Mean ([4]; Day 33): 2.09*** mL | effect on paw volume ([4]; AA rats model, FIG. 13): absent | Pathological score (Mean ± SEM), Bone resorption ([4]; AA study, 3 alone, 5 mg/kg): 3.0 ± 0.45 | Pathological score (Mean ± SEM), Cartilage injury ([4]; AA study, 3 alone, 5 mg/kg): 2.8 ± 0.51 | Pathological score (Mean ± SEM), Inflammatory cell infiltration ([4]; AA study, 3 alone, 5 mg/kg): 3.5 ± 0.34 | Pathological score (Mean ± SEM), Pannus growth ([4]; AA study, 3 alone, 5 mg/kg): 3.2 ± 0.53 | Pathological score (Mean ± SEM), Total ([4]; AA study, 3 alone, 5 mg/kg): 12.5 ± 1.78 | AUC compared with ibrutinib [5]: significantly higher | Cmax ([5]; 15 mg/kg/day, Day 1, Female): 685 ± 212 ng/mL | inhibition at 0.01 µM (TMD-8 cell line; Homo sapiens, TMD8, 48 h, 0.01 uM (10 nM), read-out: Inh % on TMD-8 cell line (AVG)): 46.1% | inhibition at 0.1 µM (TMD-8 cell line; Homo sapiens, TMD8, 48 h, 0.1 uM (100 nM), read-out: Inh % on TMD-8 cell line (AVG)): 59.6% | inhibition at 1 µM (TMD-8 cell line; Homo sapiens, TMD8, 48 h, 1 uM (1,000 nM), read-out: Inh % on TMD-8 cell line (AVG)): 61.7% | inhibition at 10 µM (TMD-8 cell line; Homo sapiens, TMD8, 48 h, 10 uM, read-out: Inh % on TMD-8 cell line (AVG)): 74.9% | inhibition at 100 µM (TMD-8 cell line; Homo sapiens, TMD8, 48 h, 100 uM, read-out: Inh % on TMD-8 cell line (AVG)): 99.7% | Inh % on TMD-8 cell line (AVG) (TMD-8 cell line; 0.01 uM (10 nM)): 51.66% | Inh % on TMD-8 cell line (AVG) (TMD-8 cell line; 0.1 uM (100 nM)): 52.40% | Inh % on TMD-8 cell line (AVG) (TMD-8 cell line; 1 uM (1,000 nM)): 55.05%
